From US8765722B2 (priority 2009, dated 2014)

System: human hepatoma Huh-7 cell line harboring a HCV replicon
Assay: microbe, parasite or virus in culture
Type: cell-based
Conditions: for EC50 / inhibition at 2 µM: Hepatitis C virus; for EC50: Huh-7; for inhibition at 2 µM: Huh-7, 72 h, read-out: % inhibition at 2 μM

Compound	% inhibition at 2 μM [%]	EC50 [nM]	inhibition at 2 µM [%]
5-(3,3-Dimethyl-but-1-ynyl)-3-[[trans-4-(dimethyl-phosphinoyloxy)-cyclobutyl]-cis-4-methyl-cyclohexanecarbonyl)-amino]-thiophene-2-carboxylic acid [Compound 17]	99.5	–	–
CC(C)(C)C#Cc1cc(N(C(=O)[C@H]2CC[C@H](C)CC2)[C@H]2CC[C@H](OP(C)(C)=O)CC2)c(C(=O)O)s1 [Compound 1, 5-(3,3-Dimethyl-but-1-ynyl)-3-[[trans-4-(dimethyl-phosphinoyloxy)-cyclohexyl]-(trans-4-methyl-cyclohexanecarbonyl)-amino]-thiophene-2-carboxylic acid]	–	≤ 500	99.8
CCP(=O)(CC)O[C@H]1CC[C@H](N(c2cc(C#CC(C)(C)C)sc2C(=O)O)C(=O)[C@H]2CC[C@H](C)CC2)CC1 [Compound 2, 3-[[trans-4-(Diethyl-phosphinoyloxy)-cyclohexyl]-(trans-4-methyl-cyclohexanecarbonyl)-amino]-5-(3,3-dimethyl-but-1-ynyl)-thiophene-2-carboxylic acid]	–	≤ 500	99.8
CC(C)(C)C#Cc1cc(N(C(=O)[C@H]2CC[C@H](C)CC2)[C@H]2CC[C@H](OP(C)(=O)c3ccccc3)CC2)c(C(=O)O)s1 (stereo partly drawn) [Compound 3, 5-(3,3-Dimethyl-but-1-ynyl)-3-{(trans-4-methyl-cyclohexanecarbonyl)-[trans-4-(methyl-phenyl-phosphinoyloxy)-cyclohexyl]-amino}-thiophene-2-carboxylic acid]	–	≤ 500	99.6
CC(C)(C)C#Cc1cc(N(C(=O)[C@H]2CC[C@H](C)CC2)[C@H]2CC[C@H](OP(=O)(c3ccccc3)c3ccccc3)CC2)c(C(=O)O)s1 [Compound 4, 5-(3,3-Dimethyl-but-1-ynyl)-3-[[trans-4-(diphenyl-phosphinoyloxy)-cyclohexyl]-(trans-4-methyl-cyclohexanecarbonyl)-amino]-thiophene-2-carboxylic acid]	–	–	94.7
CC(C)(C)C#Cc1cc(N(C(=O)[C@H]2CC[C@H](C)CC2)[C@H]2CC[C@@H](OP(C)(C)=O)CC2)c(C(=O)O)s1 [Compound 5, 5-(3,3-Dimethyl-but-1-ynyl)-3-[[cis-4-(dimethyl-phosphinoyloxy)-cyclohexyl]-(trans-4-methyl-cyclohexanecarbonyl)-amino]-thiophene-2-carboxylic acid]	–	≤ 500	100
CC(C)(C)C#Cc1cc(N(C(=O)[C@H]2CC[C@H](C(F)(F)F)CC2)[C@H]2CC[C@H](OP(C)(C)=O)CC2)c(C(=O)O)s1 [Compound 6, 5-(3,3-Dimethyl-but-1-ynyl)-3-[[trans-4-(dimethyl-phosphinoyloxy)-cyclohexyl]-(trans-4-trifluoromethyl-cyclohexanecarbonyl)-amino]-thiophene-2-carboxylic acid]	–	–	93.2
CP(C)(=O)O[C@H]1CC[C@H](N(c2cc(-c3ccc(NC(=O)c4cscn4)cc3)sc2C(=O)O)C(=O)[C@H]2CC[C@H](C)CC2)CC1 [Compound 7, 3-[[trans-4-(Dimethyl-phosphinoyloxy)-cyclohexyl]-(trans-4-methyl-cyclohexanecarbonyl)-amino]-5-{4-[(thiazole-4-carbonyl)-amino]-phenyl}-thiophene-2-carboxylic acid]	–	≤ 500	99.8
CP(C)(=O)O[C@H]1CC[C@H](N(c2cc(-c3ccc(-c4cc5ncccn5n4)cc3)sc2C(=O)O)C(=O)[C@H]2CC[C@H](C)CC2)CC1 [Compound 8]	–	≤ 500	99.8
COP1(=O)CCC(NC2CCC(N(c3cc(C#CC(C)(C)C)sc3C(=O)O)C(=O)[C@H]3CC[C@H](C)CC3)CC2)CC1 (stereo partly drawn) [Compound 9, 5-(3,3-Dimethyl-but-1-ynyl)-3-[[4-(1-methoxy-1-oxo-1λ^5-phosphinan-4-ylamino)-cyclohexyl]-(trans-4-methyl-cyclohexanecarbonyl)-amino]-thiophene-2-carboxylic acid]	–	≤ 500	99.9
COP1(=O)CCC(N(c2cc(C#CC(C)(C)C)sc2C(=O)O)C(=O)[C@H]2CC[C@H](C)CC2)CC1 (stereo partly drawn) [Compound 11, 5-(3,3-Dimethyl-but-1-ynyl)-3-[(1-methoxy-1-oxo-1 λ^5phosphinan-4-yl)-(trans-4-methyl-cyclohexanecarbonyl)-amino]-thiophene-2-carboxylic acid]	–	≤ 500	99.8
CC(C)(C)C#Cc1cc(N(C(=O)[C@H]2CC[C@H](C)CC2)C2CCP(=O)(O)CC2)c(C(=O)O)s1 (stereo partly drawn) [Compound 12, 5-(3,3-Dimethyl-but-1-ynyl)-3[(1-hydroxy-1-oxo-1 λ^5phosphinan-4-yl)-(trans-4-methyl-cyclohexanecarbonyl)-amino]-thiophene-2-carboxylic acid]	–	–	98.2
CCOP(C)(=O)C1(O)CCC(N(c2cc(C#CC(C)(C)C)sc2C(=O)O)C(=O)[C@H]2CC[C@H](C)CC2)CC1 (stereo partly drawn) [Compound 13, 5-(3,3-dimethylbut-1-ynyl)-3-((1r,4r)-N-(4-ethoxy(methyl)phosphoryl)-4-hydroxycyclohexyl)-(trans-4-methylcyclohexanecarboxamido)thiophene-2-carboxylic acid]	–	≤ 500	99.8
CCOP(C)(=O)C1(OC)CCC(N(c2cc(C#CC(C)(C)C)sc2C(=O)O)C(=O)[C@H]2CC[C@H](C)CC2)CC1 (stereo partly shown) [Compound 14]	–	≤ 500	99.8
CC(C)(C)C#Cc1cc(N(CCOP(C)(C)=O)C(=O)[C@H]2CC[C@H](C)CC2)c(C(=O)O)s1 [Compound 15, 5-(3,3-Dimethyl-but-1-ynyl)-3-[[2-(dimethyl-phosphinoyloxy)-ethyl]-(trans-4-methyl-cyclohexanecarbonyl)-amino]-thiophene-2-carboxylic acid]	–	≤ 500	98.9
CCP(=O)(CC)OCCN(c1cc(C#CC(C)(C)C)sc1C(=O)O)C(=O)[C@H]1CC[C@H](C)CC1 [Compound 16, 3-[[2-(Diethyl-phosphinoyloxy)-ethyl]-(trans-4-methyl-cyclohexanecarbonyl)-amino]-5-(3,3-dimethyl-but-1-ynyl)-thiophene-2-carboxylic acid]	–	≤ 500	99.5
CCOP(C)(=O)CCN(c1cc(C#CC(C)(C)C)sc1C(=O)O)C(=O)[C@H]1CC[C@H](C)CC1 (stereo partly shown) [Compound 18, 5-(3,3-Dimethyl-but-1-ynyl)-3-[[2-(ethoxy-methyl-phosphinoyl)-ethyl]-(4-methyl-cyclohexanecarbonyl)-amino]thiophene-2-carboxy-lic acid]	–	≤ 500	98.8
CC(C)(C)C#Cc1cc(N(CCP(C)(=O)O)C(=O)[C@H]2CC[C@H](C)CC2)c(C(=O)O)s1 [Compound 19, 5-(3,3-dimethyl-but-1-ynyl)-3-[[2-(hydroxy-methyl-phosphinoyl)-ethyl]-(4-methyl-cyclohexanecarbonyl)-amino]-thiophene-2-carboxylic acid]	–	≤ 500	94.2
CCOP(C)(=O)Cc1ccc(-c2cc(N(C(=O)[C@H]3CC[C@H](C)CC3)C3CCC4(CC3)OCCO4)c(C(=O)O)s2)cc1 (stereo partly shown) [Compound 20, 3-[(1,4-Dioxa-spiro[4.5]dec-8-yl)-(4-methyl-cyclohexanecarbonyl)-amino]-5-[4-(ethoxy-methyl-phosphinoylmethyl)-phenyl]-thiophene-2-carboxylic acid]	–	–	56.3
CCOP(C)(=O)Cc1ccc(-c2cc(N(C(=O)[C@H]3CC[C@H](C)CC3)[C@H]3CC[C@H](O)CC3)c(C(=O)O)s2)cc1 (stereo partly shown) [Compound 21]	–	–	79.2
CP(=O)(O)Cc1ccc(-c2cc(N(C(=O)[C@H]3CC[C@H](C)CC3)[C@H]3CC[C@H](O)CC3)c(C(=O)O)s2)cc1 [Compound 22]	–	–	12.3
CC(C)(C#Cc1cc(N(C(=O)[C@H]2CC[C@H](C)CC2)[C@H]2CC[C@H](O)CC2)c(C(=O)O)s1)CCOP(C)(C)=O [Compound 23]	–	≤ 500	–
CCOP(=O)(CCNC1CCC(N(c2cc(C#CC(C)(C)C)sc2C(=O)O)C(=O)[C@H]2CC[C@H](C)CC2)CC1)OCC (stereo partly shown) [Compound 24, 3-(1,4-N-(4-(2-(diethoxyphosphoryl)ethylamino)cyclohexyl)-4-methylcyclohexanecarboxamido)-5-(3,3-dimethylbut-1-ynyl)thiophene-2-carboxylic acid]	–	≤ 500	–
